Read-outs that look alike come from different tables or passages of the source.
Assays:
[1] = tested on: advanced, unresectable HCC (various cancers in whole group); assay: Phase I trial G-202-001, expansion group with modified dosing regimen; type: in vivo, human; settings: fifth HCC patient
From the text: Virtually all anti-cancer agents have the potential to cause infusion reactions, which are reactions that may be allergic or non-allergic in nature and not related to the known toxicity profile of the agent. Infusion reactions are usually thought of as hypersensitivity reactions, despite the absence of an allergic component in many cases.
Endpoints evaluated in the expansion group included safety, tumor response rate, progression-free survival, and overall survival. Additional secondary endpoints included exploration of pharmacodynamic markers associated with various cancers. Assessments were routinely performed during therapy and following therapy if toxicity was the reason therapy was discontinued.
The only FDA-approved therapy for patients with unresectable HCC is sorafenib tosylate, otherwise known as Nexavar® and/or by the chemical name: 4-(4-{3-[4-Chloro-3-(trifluoromethyl)phenyl]ureido}phenoxy)N2methylpyridine-2-carboxamide 4-methylbenzenesulfonate.

[2] = tested on: progressive advanced hepatocellular carcinoma (HCC); settings: two of four patients, no improvement on therapy
[3] = tested on: advanced hepatocellular carcinoma; settings: cited from earlier work
[4] = tested on: advanced hepatocellular carcinoma; settings: Asian-Pacific trial, advanced HCC; cited from earlier work
[5] = tested on: Sarcoplasmic/Endoplasmic Reticulum Calcium ATPase (SERCA) pump; settings: cited from earlier work

Molecule: 8-O-(12-aminododecanoyl)-debutanoyl-thapsigargin aspartate-glutamate-γ-glutamate-γ-glutamate-γ-glutamate OH [G-202]
- time without disease progression after ceasing treatment [1]: more than four
- disease progression reached after number of cycles [2]: no more than two

Molecule: CNC(=O)c1cc(Oc2ccc(NC(=O)Nc3ccc(Cl)c(C(F)(F)F)c3)cc2)ccn1.Cc1ccc(S(=O)(=O)O)cc1 [sorafenib, 4-(4-{3-[4-Chloro-3-(trifluoromethyl)phenyl]ureido}phenoxy)N2methylpyridine-2-carboxamide 4-methylbenzenesulfonate]
- disease progression on prior sorafenib treatment after ([1]; before G-202): 3 months
- time to radiologic progression ([3]; SHARP Trial, patients with advanced HCC, no prior systemic treatment): 5.5 months
- overall survival ([3]; SHARP Trial, patients with advanced HCC): 10.7 months
- average time to disease progression after beginning sorafenib treatment ([3]; clinical trial of 602 patients with HCC (Llovet 2008)): approximately six
- median overall survival [4]: 6.5 months
- time to radiologic progression [4]: 2.8 months

Molecule: C/C=C(/C)C(=O)O[C@H]1C(C)=C2[C@H]([C@@H]1OC(=O)CCCCCCC)[C@@](C)(OC(C)=O)C[C@H](OC(=O)CCC)[C@@]1(O)[C@H]2OC(=O)[C@@]1(C)O [Thapsigargin]
- affinity of binding to SERCA pump [5]: high affinity

From patent US20150238460A1, “Methods and Compositions For Treating Hepatocellular Carcinoma” (priority 2012, published 2015)
